Results as given in patent publication US20250135028A1, “TUNABLE POLYMERIC NANOPARTICLES FOR TARGETED AND SUSTAINED DELIVERY OF GLYCOPEPTIDE ANTIBIOTICS” (Insmed Incorporated, priority 2021, published 2025).

Legend:
[1] = Drug loading and encapsulation efficiency of drug loaded PNPs comprising pGlu(0.6C10)-PEG (HPLC); type: physicochemical; conditions: 5 mg drug
From the text: To assess the ability of pGlu(0.6C10)-PEG to load positively charged antibiotics in the form of PNPs, we selected vancomycin and RV94 as the antibiotic drug payload in a first study (study 1) (Table 5), and additionally included oritavancin and RV40 as the antibiotic drug payload in a second study (study 2) (Table 6). The polymers we used for loading and encapsulating the antibiotics were PLA-PEG (A) (Nanosoft Polymers, SKU: 2693), pGlu-PEG (B) (Nanosoft Polymers, SKU: 2917), and pGlu(0.6C10)-PEG (C) (FIG. 10).
We prepared the drug loaded PNPs by using 20 mg of polymers and 5 mg of drug (FIG. 10). Specifically, polymers (20 mg) and drug (5 mg) were dissolve in 1 ml organic solvent mixture (DMSO: acetonitrile=1:1). The solution was injected into 20 ml deionized water stirred with a magnetic stirring bar. The nanoparticles were washed using Amicon filter (100k cut-off) twice and resuspended in deionized water. Drug loading in nanoparticle formulation was determined by HPLC with a WATERS™ T3 column. Acetonitrile/water was used as the mobile phase, and the wavelength of the UV detector was set at 281 nm.
Drug loading is equal to mass of drug (mg) after wash/(mass of drug (mg) after wash+mass of polymer input (i.e., 20 mg))*100%.
EE is equal to mass of drug (mg) after wash/mass of drug input (i.e., 5 mg)*100%.

[2] = Drug loading and encapsulation efficiency of drug loaded PNPs comprising pGlu(0.6C10) (HPLC); type: physicochemical; conditions: 2.5 mg drug
From the text: To assess the ability of pGlu(0.6C10) to load positively charged antibiotics in the form of PNPs, we selected vancomycin, oritavancin, RV40 and RV94 as the drug payload. Vancomycin was chosen as a non-lipoglycopeptide control and the other three payloads were lipoglycopeptides. The polymers we used for loading and encapsulating the antibiotics were PLA(10K)-PEG(2K) (A) obtained from Nanosoft Polymers (Winston-Salem, NC, USA; SKU: 2693), pGlu (D) also obtained from Nanosoft Polymers (SKU: 10069), and pGlu(0.6C10) (E) (FIG. 4).
We prepared the drug loaded PNPs by using 10 mg of polymers and 2.5 mg of drug (FIG. 4). Specifically, polymers (10 mg) and drug (2.5 mg) were dissolved in 1.2 ml organic solvent mixture (DMSO: acetonitrile=0.5:0.7). The solution was injected into 10 ml deionized water stirred with a magnetic stirring bar. 1.1 ml 10×PBS solution was added to suspend nanoparticles in 1×PBS solution. The nanoparticles were washed using Amicon filter (100k cut-off) twice and resuspended in PBS. Drug loading in nanoparticle formulation was determined by HPLC with a WATERS™ T3 column. Acetonitrile/water was used as the mobile phase, and the wavelength of the UV detector was set at 281 nm.
EE is equal to mass of drug (mg) after wash/mass of drug input (i.e., 2.5 mg) *100%. With EE calculated as such, an EE of over 100% may be obtained on certain occasions due to standard error within the analytical measurement and represents complete encapsulation (i.e., 100% EE).

[3] = Pharmacokinetic study of oritavancin-loaded PNPs in rat osteomyelitis model (plasma and tibia, LC-MS/MS); type: in vivo; conditions: osteomyelitis rats, 6 mg/kg intravenous
From the text: A rat model of bacterial osteomyelitis of the tibia was generated via intraosseous injection of MRSA ATCC 43300 at a target challenge dose of 7 log10 CFU of the bacteria per rat. Briefly, rats were anaesthetized by isoflurane and the infection was initiated via injection of the bacteria through the upper condyle of the right tibia into the cancellous bone marrow of a rat. The inoculation was made on the anterior surface of the tibia. The area was located by running a ½ inch 27-gauge needle against the skin, along the anterior crest of the tibia. The needle slipped over the tip of the tuberosity, which was located between the medial and lateral condyles. A rough depression could be felt with the tip of the needle. The patella tendon (silver in color) connected at this point. Once identified, the needle was pushed into the metaphysis using slight pressure and rotating motion. The needle was removed and replaced with a new ½ inch 27 gauge needle, and 30 μL of bacteria was inoculated into the bone marrow cavity. The needle was removed and the animal was allowed to recover from anesthesia.
Three weeks (21 days) after the initiation of the bacterial infection, the osteomyelitis rats were divided into three treatment groups, with five rats in each group. […] The concentrations of oritavancin in the plasma and tibia samples were quantified using LC-MS/MS.

[4] = study 1, PLA-PEG (A) 10 mg + pGlu(0.6C10)-PEG (C) 10 mg
[5] = study 1, PLA-PEG (A) 10 mg + pGlu-PEG (B) 10 mg
[6] = study 1, PLA-PEG (A) 20 mg only
[7] = study 2, PLA-PEG (A) 10 mg + pGlu(0.6C10)-PEG (C) 10 mg
[8] = study 2, PLA-PEG (A) 10 mg + pGlu-PEG (B) 10 mg
[9] = PNP with PLA-PEG (A) 5 mg + pGlu (D) 5 mg
[10] = PNP with PLA-PEG (A) 5 mg + pGlu(0.6C10) (E) 5 mg
[11] = PNP with PLA-PEG (A) as only polymer, 10 mg polymer
[12] = drug payload only, no polymer (N/A)

CN[C@H](CC(C)C)C(=O)N[C@H]1C(=O)N[C@@H](CC(N)=O)C(=O)N[C@H]2C(=O)N[C@H]3C(=O)N[C@H](C(=O)N[C@H](C(=O)O)c4cc(O)cc(O)c4-c4cc3ccc4O)[C@H](O)c3ccc(c(Cl)c3)Oc3cc2cc(c3O[C@@H]2O[C@H](CO)[C@@H](O)[C@H](O)[C@H]2O[C@H]2C[C@](C)(N)[C@H](O)[C@H](C)O2)Oc2ccc(cc2Cl)[C@H]1O [Vac, vancomycin]
Drug loading [1, 4]: 2.7%
Encapsulation efficiency (EE) [1, 4]: 18.6%
Drug loading [1, 5]: 0.0%
Encapsulation efficiency (EE) [1, 5]: 0.0%
Encapsulation efficiency (EE) ([1]; study 1, PLA-PEG (A) 10 mg + pGlu-PEG (B) 10 mg, listed as vancomycin): 0.0%
Drug loading [1, 6]: 0.0%
Encapsulation efficiency (EE) [1, 6]: 0.0%
Encapsulation efficiency (EE) ([1]; study 1, PLA-PEG (A) 20 mg only, listed as vancomycin): 0.0%
Drug loading [1, 7]: 2.4%
Encapsulation efficiency (EE) [1, 7]: 9.8%
Drug loading [1, 8]: 0.0%
Encapsulation efficiency (EE) [1, 8]: 0.2%
Drug loading [2, 9]: 0.0%
Encapsulation efficiency (EE) [2, 9]: 0.1%
Encapsulation efficiency (EE) ([2]; PNP with PLA-PEG (A) 5 mg + pGlu (D) 5 mg, listed as vancomycin): 0.1%
Drug loading [2, 10]: 0.1%
Encapsulation efficiency (EE) [2, 10]: 0.5%
Encapsulation efficiency (EE) ([2]; PNP with PLA-PEG (A) 5 mg + pGlu(0.6C10) (E) 5 mg, listed as vancomycin): 0.5%
Drug loading [2, 11]: 0.0%
Encapsulation efficiency (EE) [2, 11]: 0.2%
Encapsulation efficiency (EE) ([2]; PNP with PLA-PEG (A) as only polymer, 10 mg polymer, listed as vancomycin): 0.2%
Drug loading [2, 12]: 0.0%
Encapsulation efficiency (EE) [2, 12]: 0.0%

CCCCCCCCCCNC(=O)CNC1(C)CC(OC2C(Oc3c4cc5cc3Oc3ccc(cc3Cl)C(O)C3NC(=O)C(NC(=O)C5NC(=O)C(CC(N)=O)NC(=O)C(NC(=O)C(CC(C)C)NC)C(O)c5ccc(c(Cl)c5)O4)c4ccc(O)c(c4)-c4c(O)cc(O)cc4C(C(=O)O)NC3=O)OC(CO)C(O)C2O)OC(C)C1O (stereo not shown) [RV94]
Drug loading [1, 4]: 16.7%
Encapsulation efficiency (EE) [1, 4]: 88.4%
Drug loading [1, 5]: 13.6%
Encapsulation efficiency (EE) [1, 5]: 70.1%
Drug loading [1, 6]: 0.9%
Encapsulation efficiency (EE) [1, 6]: 4.0%
Drug loading [1, 7]: 17.5%
Encapsulation efficiency (EE) [1, 7]: 92.7%
Drug loading [1, 8]: 13.2%
Encapsulation efficiency (EE) [1, 8]: 59.8%
Drug loading [2, 9]: 3.5%
Encapsulation efficiency (EE) [2, 9]: 12.9%
Drug loading [2, 10]: 20.9%
Encapsulation efficiency (EE) [2, 10]: 107.2%
Drug loading [2, 11]: 2.8%
Encapsulation efficiency (EE) [2, 11]: 10.4%
Drug loading [2, 12]: 1.3%
Encapsulation efficiency (EE) [2, 12]: 4.2%

CN[C@H](CC(C)C)C(=O)N[C@H]1C(=O)N[C@@H](CC(N)=O)C(=O)N[C@H]2C(=O)N[C@H]3C(=O)N[C@H](C(=O)N[C@H](C(=O)O)c4cc(O)cc(O)c4-c4cc3ccc4O)[C@H](O[C@H]3C[C@](C)(N)[C@@H](O)[C@H](C)O3)c3ccc(c(Cl)c3)Oc3cc2cc(c3O[C@@H]2O[C@H](CO)[C@@H](O)[C@H](O)[C@H]2O[C@H]2C[C@](C)(NCc3ccc(-c4ccc(Cl)cc4)cc3)[C@@H](O)[C@H](C)O2)Oc2ccc(cc2Cl)[C@H]1O [Ori, oritavancin]
Drug loading [1, 7]: 13.4%
Encapsulation efficiency (EE) [1, 7]: 68.1%
Drug loading [1, 8]: 10.6%
Encapsulation efficiency (EE) [1, 8]: 41.0%
Accumulation of oritavancin in infected tibia compared to uninfected tibia ([3]; 24 h post-injection): preferential accumulation of oritavancin in the infected tibia
Plasma concentrations of oritavancin ([3]; up to 4 hours post-injection): comparable and lower plasma concentrations of oritavancin
Drug loading [2, 9]: 8.7%
Encapsulation efficiency (EE) [2, 9]: 39.3%
Encapsulation efficiency (EE) ([2]; PNP with PLA-PEG (A) 5 mg + pGlu (D) 5 mg, listed as oritavancin): 39.3%
Drug loading [2, 10]: 12.3%
Encapsulation efficiency (EE) [2, 10]: 60.6%
Encapsulation efficiency (EE) ([2]; PNP with PLA-PEG (A) 5 mg + pGlu(0.6C10) (E) 5 mg, listed as oritavancin): 60.6%
Drug loading [2, 11]: 2.3%
Encapsulation efficiency (EE) [2, 11]: 9.8%
Encapsulation efficiency (EE) ([2]; PNP with PLA-PEG (A) as only polymer, 10 mg polymer, listed as oritavancin): 9.8%
Drug loading [2, 12]: 0.0%
Encapsulation efficiency (EE) [2, 12]: 0.0%

CCCCCCCCCCNCCNC1(C)CC(OC2C(Oc3c4cc5cc3Oc3ccc(cc3Cl)C(O)C(NC(=O)C(CC(C)C)NC)C(=O)NC(CC(N)=O)C(=O)NC5C(=O)NC3C(=O)NC(C(=O)CC(C(=O)O)c5cc(O)cc(O)c5-c5cc3ccc5O)C(O)c3ccc(c(Cl)c3)O4)OC(CO)C(O)C2O)OC(C)C1O (stereo not shown) [RV40]
Drug loading [1, 7]: 6.4%
Encapsulation efficiency (EE) [1, 7]: 45.5%
Drug loading [1, 8]: 6.7%
Encapsulation efficiency (EE) [1, 8]: 33.2%
Drug loading [2, 9]: 3.1%
Encapsulation efficiency (EE) [2, 9]: 15.0%
Drug loading [2, 10]: 15.0%
Encapsulation efficiency (EE) [2, 10]: 100.7%
Drug loading [2, 11]: 1.9%
Encapsulation efficiency (EE) [2, 11]: 7.0%
Drug loading [2, 12]: 0.0%
Encapsulation efficiency (EE) [2, 12]: 0.0%
